Reference: paper PMC5730604
Where two headings read alike, the source gives them in different places. Starred links: 1 amine or outer side, 2 acyl side, 3 side chain; linkers in the order of their positions; H or OH if unused. Positions of bridges follow the written chain, without caps; N, C: chain ends. Non-standard residues stand in square brackets, D forms with d. Residues, ends and D or L forms follow the SMILES beside them. Groups on a side chain read outwards from the residue. *: point of attachment. PEG28 = NCCOCCOCCOCCOCCOCCOCCOCCOCCOCCOCCOCCOCCOCCOCCOCCOCCOCCOCCOCCOCCOCCOCCOCCOCCOCCOCCOCCOCCC(=O)O; X1 = O=C(CCCC[C@@H]1SC[C@@H]2NC(=O)N[C@@H]21)NCCCOCCOCCOCCCN*; Tyr(3-NO2) = N[C@@H](Cc1ccc(O)c([N+](=O)[O-])c1)C(=O)O; Glutaryl = O=C(CCCC(=O)[*:2])[*:1]; Hyp = O=C(O)[C@@H]1C[C@@H](O)CN1; PEG4 = NCCOCCOCCOCCOCCC(=O)O; For = O=C*

Key:
A431 = assay: Flow cytometry binding to cells; set-up: species or system Human; key to the marks not given beside the values; details: 1 µM biotinylated peptide
PC-3 = assay: Flow cytometry binding to cells; set-up: species or system Human; key to the marks not given beside the values; details: 1 µM biotinylated peptide
K562 = assay: Flow cytometry binding to cells; set-up: species or system Human; details: 1 µM biotinylated peptide; note: key: ++: Strong binding; +: medium binding; +/−: weak binding; −: no binding
HUVEC = assay: Flow cytometry binding to cells; set-up: species or system Human; details: 1 µM biotinylated peptide
foreskin fibroblasts = details: flow cytometry, 1 µM biotinylated peptide
primary lymphocytes = assay: Flow cytometry binding to cells; details: 1 µM biotinylated peptide; note: key: ++: Strong binding; +: medium binding; +/−: weak binding; −: no binding
primary monocytes = assay: Flow cytometry binding to cells; details: 1 µM biotinylated peptide; note: key: ++: Strong binding; +: medium binding; +/−: weak binding; −: no binding
primary granulocytes = assay: Flow cytometry binding to cells; details: 1 µM biotinylated peptide; note: key: ++: Strong binding; +: medium binding; +/−: weak binding; −: no binding
primary monocytes 2 days = assay: Flow cytometry binding to cells; details: 1 µM biotinylated peptide; note: key: ++: Strong binding; +: medium binding; +/−: weak binding; −: no binding
[1] = tested on: primary macrophages 7 days; assay: Flow cytometry binding to cells; details: 1 µM biotinylated peptide; for binding to macrophages 7 days: key: ++: strong binding; +: m edium binding; +/-: weak or heterogeneous binding; -: no binding
J774A.1 = details: mouse, flow cytometry, 1 µM biotinylated peptide
3LL-R = details: mouse, flow cytometry, 1 µM biotinylated peptide
Hepa1–6 = details: mouse, flow cytometry, 1 µM biotinylated peptide
primary macrophages 7d = assay: Flow cytometry binding to cells; details: 1 µM biotinylated peptide; note: key: ++: Strong binding; +: medium binding; +/−: weak binding; −: no binding
GPC-16 = assay: Flow cytometry binding to cells; set-up: key to the marks not given beside the values; details: 1 µM biotinylated peptide
104C1 = assay: Flow cytometry binding to cells; set-up: key to the marks not given beside the values; details: 1 µM biotinylated peptide
JH4 clone 1 = assay: Flow cytometry binding to cells; set-up: key to the marks not given beside the values; details: 1 µM biotinylated peptide
U-87MG = assay: Flow cytometry binding to cells; set-up: key: ++: strong binding; +: m edium binding; +/-: weak or heterogeneous binding; -: no binding; details: Table S1, human, 1 µM biotinylated peptide, 2 mM MnCl2, on ice
U-138MG = assay: Flow cytometry binding to cells; set-up: key: ++: strong binding; +: m edium binding; +/-: weak or heterogeneous binding; -: no binding; details: Table S1, human, 1 µM biotinylated peptide, 2 mM MnCl2, on ice
MCF-7 = assay: Flow cytometry binding to cells; details: Table S1, human, 1 µM biotinylated peptide, 2 mM MnCl2, on ice; note: key: ++: strong binding; +: m edium binding; +/-: weak or heterogeneous binding; -: no binding
MDA-MB-231 = assay: Flow cytometry binding to cells; set-up: key: ++: strong binding; +: m edium binding; +/-: weak or heterogeneous binding; -: no binding; details: Table S1, human, 1 µM biotinylated peptide, 2 mM MnCl2, on ice
HT-29 = assay: Flow cytometry binding to cells; set-up: key: ++: strong binding; +: m edium binding; +/-: weak or heterogeneous binding; -: no binding; details: Table S1, human, 1 µM biotinylated peptide, 2 mM MnCl2, on ice
A549 = tested on: A549; set-up: key to the marks not given beside the values; details: Table S1; human; flow cytometry, 1 µM biotinylated peptide, 2 mM MnCl2, on ice
MHEC5-T = details: Table S1; mouse; flow cytometry, 1 µM biotinylated peptide, 2 mM MnCl2, on ice
3LL-S = details: Table S1; mouse; flow cytometry, 1 µM biotinylated peptide, 2 mM MnCl2, on ice
MC38 = details: Table S1; mouse; flow cytometry, 1 µM biotinylated peptide, 2 mM MnCl2, on ice
EG7 = details: Table S1; mouse; flow cytometry, 1 µM biotinylated peptide, 2 mM MnCl2, on ice
TSA = details: Table S1; mouse; flow cytometry, 1 µM biotinylated peptide, 2 mM MnCl2, on ice
C26 = details: Table S1; mouse; flow cytometry, 1 µM biotinylated peptide, 2 mM MnCl2, on ice
VX2 / J S-2-2r = assay: Flow cytometry binding to cells; set-up: key: ++: strong binding; +: m edium binding; +/-: weak or heterogeneous binding; -: no binding; details: Table S1, rabbit, 1 µM biotinylated peptide, 2 mM MnCl2, on ice
leukocytes = details: Table S1; rabbit; flow cytometry, 1 µM biotinylated peptide, 2 mM MnCl2, on ice
PBEC = details: Table S1; pig; flow cytometry, 1 µM biotinylated peptide, 2 mM MnCl2, on ice
NIH-3T3 = details: mouse, flow cytometry, 1 µM biotinylated peptide
Description: (§9) from DSMZ or LGC and cultured according to the distributors’ guidelines. Human, murine or
(§10) guinea pig leukocytes or macrophages were isolated and cultured as described below. Cells
(§11) growing in monolayers were detached using trypsin/EDTA and then re- suspended in complete
(§12) culture medium. After washing with washing buffer (W B: 0.9% NaCl, 10 mM Hepes, pH 7.3) at
(§13) 4°C, cells were re-suspended at 2x10^6 cells/ml in peptide blocking b uf f er ( PBB: 0.9% NaCl,
(§14) 10 m M H epes, pH 7.3, 5 m M KCl , 3% BSA, 5% FCS) and incubated for 10 minutes on ice
(§15) concentration in PBB were added to equal volumes of aliquots of 1x10^5 cells, and were
(§16) incubated f or 30 min on ice with repeated shaking to keep the cells in suspension. Except
(§17) three times wit h 1 ml W B, followed by incubation with streptavidin labeled wit h PerCP-Cy5.5
(§18) (BD Biosciences, 200 µg/ml; diluted 1:400 in PBB) for 15 min on ice. After one additional
(§19) wa s h ing step with phosphate- buffered saline (PBS) at 4°C, samples were re-suspended in
(§20) PBS with Hoechst 33258 solution (0.5 µg/ml) and analyzed using a F ACS Canto system ( at
least 1x10^4 cells per sample were counted). Evaluations were performed using FloJo software.
W hole cells were gated i n a FSC/SSC plot and live gating was based on Hoechst exclusion.
After gating out debris, aggregates and dead cells, overlay histograms in the PerCP-Cy5.5
indicated cases the geometrical mean f luorescence was recorded.
For determining binding affinity, a rang e of concentrations of the biotinylated compound was
tested and the f luorescent signals were plotted against concentration. The concentration at
which half-maximum binding intensity was reached (KD) was calculated using Origin 9.0
sof tware and a “one site specif ic binding” fit (y =(Bmax* x) /(KD+x) ).
f luorescent signals were plotted against competitor concentration. The concentration at which

HeLa = tested on: HeLa; set-up: key to the marks not given beside the values; details: Table S1; human; flow cytometry, 1 µM biotinylated peptide, 2 mM MnCl2, on ice
L-929 = details: Table S1; mouse; flow cytometry, 1 µM biotinylated peptide, 2 mM MnCl2, on ice
Description: as §9, §10, §11, §12, §13, §14, §15, §16, §17, §18, §19, §20
(§21) least 1x10^4 cells per sample were counted). Evaluations were performed using FloJo software. […]
(§22) indicated cases the geometrical mean f luorescence was recorded. […]
(§23) which half-maximum binding intensity was reached (KD) was calculated using Origin 9.0 […]

E0771 = details: Table S1; mouse; flow cytometry, 1 µM biotinylated peptide, 2 mM MnCl2, on ice
Description: as §9, §10, §11, §12, §13, §14, §15, §16, §17, §18, §19, §20, §21, §22, §23

4T1 = details: Table S1; mouse; flow cytometry, 1 µM biotinylated peptide, 2 mM MnCl2, on ice
Description: as §9, §10, §11, §12, §13, §14, §15, §16, §17, §18, §19, §20, §21, §22, §23

PC-3 or A431 cells = details: PC-3 or A431 cells, incubated at 37 °C, streptavidin staining
Description: washed as described above and then re-suspended in Eagle’s minimum essential medium
incubated on ice or at 37°C. At different time points after washing 50 µl samples were taken
and added to 50 µl of Streptavidin- PerCP-Cy5.5 (diluted 1:200), incubated on ice f or 15 min,
washed with PBS, and analyzed in PBS with Hoechst solution. Fluorescent signals were
plotted against time between washing and streptavidin addition.
over time after incubation on ice and at 37°C.
labeled streptavidin as described previously f or flow cytometry assays.

human leukocytes = assay: Chemotaxis assay; format: cell-based; details: compared with the non-PEGylated effector
Description: Human leukocytes were re-suspended in Hank ’s Buffered Saline Solution (HBSS, without
Ca2+, Mg 2+) with 10 mM Hepes pH 7.3 and 0.3% BSA at 10^7 cells/ml. Cells were pre-warmed
at 37°C for 20 min. After adding the effector dilutions in the lower compartment of 24-well plates
(800 µl/well), a Millicell culture plate insert with 5 µm pore size was placed in each well, f ollowed
by immediate addition of 200 µl (2 million) leuk ocytes. In one well, the cells were added without
a f ilter insert, allowing determination of the input number. The plate was incubated at 37°C and
5% CO2 f or 45 min. 5 mM EDTA solution was added and the plate was incubated f or another
10 min at 37 °C. […]
Phorbol
(§1) 12- m yr ist oyl 13-acetate (P MA , 3 µg/ml) was used as a positive control. All samples were f ixed
(§2) in 1% formaldehyde Hoechst 33258 solution (0.5 µg/ml) was added and cells were k ept on ice
(§3) until analysis using a FACS Canto system. After gating for live cells and granulocytes (human
(§4) cells) or non- lymphocytes (murine cells) in the FSC/SSC plot, rhodamine-positive cells were
(§5) identif ied in a PE/SSC plot, using an unstimulated sample as a reference.
(§6) Human monocytes, after an overnight pre- culture, were incubated f or 6 more hours in 1 ml
(§7) RPMI+10% FCS containing 100 nM F2- 2PEG, 0.1 ng/ml LPS (Sigma- Aldrich), or no stimulus.
(§8) All experiments were performed in duplicates. […]

human granulocytes = assay: Oxidative burst (dihydro-rhodamine oxidation) assay; format: cell-based; details: compared with the non-PEGylated effector
Description: Activation of the oxidative burst (phagocyte NADPH oxidase) was measured using a
dihydrorhodamine (DHR, Molecular Probes) oxidation assay, based on a method described
previously1. In brief, 200 µl samples of human, murine or guinea pig leukocytes (1.25x 106
cells/ml in HHBS + 10 mM Hepes, pH 7.3, 0.3% BSA and 5 mM EDTA) were loaded with DHR
and catalase (Sigma-Aldrich) and cytochalasin B (Sigma-Aldrich) were added. Cells were pre-
incubated at 37°C for 10 min followed by the addition of 50 µl of effector dilutions (5x the
intended concentration) in the same buffer and another 15 min of incubation at 37°C. Phorbol
as §1, §2, §3, §4, §5, §6, §7, §8

human monocytes = assay: Cytokine release assay (ELISA); format: cell-based; details: 6 h incubation
Description: Phorbol
as §1, §2, §3, §4, §5, §6, §7
All experiments were performed in duplicates. Supernatants were centrif uged and aliq uot s of
150 µl were stored at - 80 °C until cytokine levels were measured with commercially available
ELISA kits (Ready-set-go system, eBiosciences). Cytokine concentrations in supernatants
were measured and calculated based on the standards included wit hin the ELISA kits and as
described by the manufacturer’s instructions. The following k its were used: Human TNFα (88-
analysis. Measured cytok ine levels were normalized to 1 (the average of the two unstimulated

mouse skin = assay: Local skin inflammation model, immune cell infiltration; format: in vivo; details: mouse skin, 24 h after subcutaneous injection of 100 nmol in Matrigel, HE sections
Description: Animals: Eighth Edition. W ashington, DC: The National Academies Press, 2011) were […]
Committee (LANUV AZ. 87- 51.04.2010.A278). All experiments were performed in the Institute […]
GmbH (Sulzf eld, Germany) were used. Mice were housed in individual ventilated cages under […]
humidity and a 12h dark/light cycle.
Soest, Germany) was given ad libitum. Guinea pigs were housed in conventional open cages in the same way as describe for mice. Animals were allowed to acclimatize to their […]
additional immunohistochemical stainings with antibodies against granulocytes/monocytes

[2] = 2 mM MnCl2, 30 min on ice, streptavidin-PerCP-Cy5.5
[3] = Table S1, human, 2 mM MnCl2, on ice
[4] = human, 2 mM MnCl2, 30 min on ice, streptavidin-PerCP-Cy5.5
[5] = Table S1, guinea pig, 2 mM MnCl2, on ice
[6] = guinea pig, 2 mM MnCl2, 30 min on ice, streptavidin-PerCP-Cy5.5
[7] = 100 nM F2-2PEG or 0.1 ng/ml LPS

NC(=O)C[C@@H]1NC(=O)[C@@H]2C[C@@H](O)CN2C(=O)CNC(=O)[C@H](Cc2ccc(O)c([N+](=O)[O-])c2)NC(=O)CNC(=O)[C@@H](CC(=O)O)NC(=O)[C@H](N)CSSC[C@H](C(=O)NCCOCCOCCOCCOCCC(=O)N[C@@H](CCCCNC(=O)CCCC(=O)NCCCOCCOCCOCCCNC(=O)CCCC[C@@H]2SC[C@@H]3NC(=O)N[C@@H]32)C(N)=O)NC1=O [B9-Biotin] (H-[dC][dD]G[Tyr(3-NO2)]G[Hyp]N[dC][PEG4]K([Glutaryl-X1])-NH2; disulfide 1-8)
binding to A431 (A431; [2]): ++ | binding to A431 (A431; [3]): ++ | binding to PC-3 (PC-3; [2]): ++ | binding to PC-3 (PC-3; [3]): ++ | binding to K562 (K562; [2]): − | binding to K562 (K562; [3]): - | binding to HUVEC (HUVEC; [2]): + | binding to HUVEC (HUVEC; [3]): + | binding to foreskin fibroblasts (foreskin fibroblasts; [3]): - | binding to foreskin fibroblasts (foreskin fibroblasts; [2]): − | binding to fresh lymphocytes (primary lymphocytes; [3]): - | binding to primary lymphocytes (primary lymphocytes; [4]): − | binding to fresh monocytes (primary monocytes; [3]): - | binding to primary monocytes (primary monocytes; [4]): − | binding to fresh granulocytes (primary granulocytes; [3]): - | binding to primary granulocytes (primary granulocytes; [4]): − | binding to monocytes 2 days (primary monocytes 2 days; [3]): - | binding to primary monocytes 2 days (primary monocytes 2 days; [4]): − | binding to macrophages 7 days [1, 3]: +/- | binding to primary macrophages 7 days [1, 4]: +/− | binding to J774A.1 (J774A.1; Table S1, 2 mM MnCl2, on ice): - | binding to J774A.1 (J774A.1; [2]): − | binding to 3LL-R (3LL-R; Table S1, 2 mM MnCl2, on ice): + | binding to 3LL-R (3LL-R; [2]): + | binding to Hepa1-6 (Hepa1–6; Table S1, 2 mM MnCl2, on ice): + | binding to Hepa1–6 (Hepa1–6; [2]): + | binding to macrophages 7d (primary macrophages 7d; Table S1, mouse, 2 mM MnCl2, on ice): - | binding to primary macrophages 7d (primary macrophages 7d; mouse, 2 mM MnCl2, 30 min on ice, streptavidin-PerCP-Cy5.5): − | binding to GPC-16 (GPC-16; [5]): ++ | binding to GPC-16 (GPC-16; [6]): ++ | binding to 104C1 (104C1; [5]): ++ | binding to 104C1 (104C1; [6]): ++ | binding to JH4 clone 1 (JH4 clone 1; [5]): ++ | binding to JH4 clone 1 (JH4 clone 1; [6]): ++ | binding to U-87MG (U-87MG): ++ | binding to U-138MG (U-138MG): ++ | binding to MCF-7 (MCF-7): + | binding to MDA-MB-231 (MDA-MB-231): ++ | binding to HT-29 (HT-29): ++ | binding to A549 (A549): ++ | binding to MHEC5-T (MHEC5-T): + | binding to 3LL-S (3LL-S): + | binding to MC38 (MC38): - | binding to EG7 (EG7): - | binding to TSA (TSA): + | binding to C26 (C26): + | binding to VX2 / J S-2-2r (VX2 / J S-2-2r): ++ | binding to leukocytes (leukocytes): - | binding to PBEC (PBEC): + | binding to NIH-3T3 (NIH-3T3; Table S1, 2 mM MnCl2, on ice): + | binding to NIH-3T3 (NIH-3T3; [2]): + | binding to HeLa (HeLa): ++ | binding to L-929 (L-929): - | binding to E0771 (E0771): - | binding to 4T1 (4T1): + | streptavidin signal on cells after 5 min (PC-3 or A431 cells): no signal above background

CC[C@H](C)[C@H](NC(=O)[C@H](CCSC)NC=O)C(=O)N[C@@H](Cc1ccccc1)C(=O)N[C@@H](CC(C)C)C(=O)NCC(=O)NCC(=O)N[C@@H](CCCCNC(=O)CCOCCOCCOCCOCCOCCOCCOCCOCCOCCOCCOCCOCCOCCOCCOCCOCCOCCOCCOCCOCCOCCOCCOCCOCCOCCOCCOCCOCCN)C(=O)N[C@@H](CCCCNC(=O)CCOCCOCCOCCOCCOCCOCCOCCOCCOCCOCCOCCOCCOCCOCCOCCOCCOCCOCCOCCOCCOCCOCCOCCOCCOCCOCCOCCOCCN)C(=O)O [F2-2PEG] (For-MIFLGGK(PEG28)K(PEG28)-OH)
loss of potency to induce chemotaxis when linked to the PEG chains (human leukocytes): 1–2 orders of magnitude | loss of potency for neutrophil activation (superoxide production) when linked to the PEG chains (human granulocytes): 1–2 orders of magnitude | IL-1β secreted (human monocytes; 100 nM F2-2PEG): increased | IL-6 level (human monocytes; [7]): not significantly increased | IL-8 level (human monocytes; [7]): not significantly increased | TNFα level (human monocytes; [7]): not significantly increased | immune cell infiltration at the injection site (mouse skin): clearly showed infiltration by immune cells
